Where two headings read alike, the source gives them in different places. Where a SMILES comes first, the peptide text is derived from it.
Experiments:
[1] = target: Urokinase from human urine (Homo sapiens, UniProt P00749); experiment: Enzymatic assay, urokinase
[2] = test system: human red blood cells (hRBC); experiment: Hemolysis
Description: The peptides were tested for their hemolytic activity against human red blood cells (hRBC). Fresh hRBC were washed three times with phosphate buffered saline (PBS) by centrifugation for 10 min at 2000×g. Peptides at a concentration of 100 μM were incubated with 20% v/v hRBC for 1 hour at 37° C. The final erythrocyte concentration was approximately 0.9×10^9 cells per ml. A value of 0% and, respectively, 100% cell lysis was determined by incubation of the hRBC in the presence of PBS alone and, respectively, 0.1% Triton X-100 in H2O. […] The 100% lysis value (OD540H20) gave an OD540 of approximately 1.3-1.8. Percent hemolysis was calculated as follows: (OD540peptide/OD540H20)×100%.

[3] = target: T1, Elastase from human neutrophils (Homo sapiens, UniProt P08246); experiment: Enzymatic assay, elastase
T1 sequence (P08246 30-267): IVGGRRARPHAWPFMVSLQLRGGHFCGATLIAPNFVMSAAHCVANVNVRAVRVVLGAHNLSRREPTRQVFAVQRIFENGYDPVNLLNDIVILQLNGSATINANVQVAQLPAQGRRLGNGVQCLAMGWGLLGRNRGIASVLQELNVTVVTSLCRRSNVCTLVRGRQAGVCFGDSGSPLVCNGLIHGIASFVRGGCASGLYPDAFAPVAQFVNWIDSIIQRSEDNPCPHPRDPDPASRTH

Chymase, from human skin = target: T2, Chymase, from human skin (Homo sapiens, UniProt P23946); experiment: Enzymatic assay, chymase
T2 sequence (P23946 22-247): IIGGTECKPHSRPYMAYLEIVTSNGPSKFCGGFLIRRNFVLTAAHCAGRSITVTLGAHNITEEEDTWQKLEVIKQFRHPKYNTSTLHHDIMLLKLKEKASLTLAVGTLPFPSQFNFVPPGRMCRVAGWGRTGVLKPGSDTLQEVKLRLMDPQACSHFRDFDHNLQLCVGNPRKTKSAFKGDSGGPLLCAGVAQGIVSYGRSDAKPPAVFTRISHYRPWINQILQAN

[4] = target: Trypsin, from human pancreas (Homo sapiens, UniProt P07477); experiment: Enzymatic assay, trypsin; conditions: at 100 μM
[5] = target: T3, CathepsinG, from human neutrophils (Homo sapiens, UniProt P08311); experiment: Enzymatic assay, cathepsin G; conditions: Cathepsin G IC50
T3 sequence (P08311 21-244): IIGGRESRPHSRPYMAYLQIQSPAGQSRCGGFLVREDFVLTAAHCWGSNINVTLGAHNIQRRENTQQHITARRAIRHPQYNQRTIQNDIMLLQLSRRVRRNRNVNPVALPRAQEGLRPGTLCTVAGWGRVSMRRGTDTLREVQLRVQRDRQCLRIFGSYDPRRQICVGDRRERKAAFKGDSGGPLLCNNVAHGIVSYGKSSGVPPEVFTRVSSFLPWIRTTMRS

HELA cells (Acc57) = experiment: Cytotoxicity assay (MTT reduction), HELA cells; type: cell-based
Method in brief: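 HeLa cells were grown for 24 h, then exposed to peptides at 12.5, 25 and 50 μM in triplicate for 48 h at 37 °C. MTT reduction was read at 595 nm and growth % calculated relative to time-zero wells. LC50 interpolated by linear trend at −50% growth, GI50 at 50%.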

[6] = target: Thrombin, from Human Plasma (Homo sapiens, UniProt P00734); experiment: Enzymatic assay, thrombin
[7] = test system: Tryptase, from human lung; experiment: Enzymatic assay, tryptase; conditions: at 100 μM
[8] = target: Chymotrypsin, from human pancreas (Homo sapiens, UniProt P17538); experiment: Enzymatic assay, chymotrypsin; conditions: at 100 μM
[9] = target: Coagulation Factor Xa, from uman plasma (Homo sapiens, UniProt P00742); experiment: Enzymatic assay, coagulation factor Xa
Chain of Coagulation Factor Xa, from uman plasma (P00742 235-488 limits assumed): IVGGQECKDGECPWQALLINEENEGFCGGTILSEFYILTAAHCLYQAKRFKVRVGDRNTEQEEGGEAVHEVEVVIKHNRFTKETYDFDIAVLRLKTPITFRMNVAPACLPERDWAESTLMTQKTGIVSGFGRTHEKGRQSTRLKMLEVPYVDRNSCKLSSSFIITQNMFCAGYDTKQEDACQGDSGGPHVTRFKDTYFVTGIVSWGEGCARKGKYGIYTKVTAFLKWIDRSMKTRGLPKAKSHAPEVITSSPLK
Chain of Coagulation Factor Xa, from uman plasma (P00742 41-179 limits assumed): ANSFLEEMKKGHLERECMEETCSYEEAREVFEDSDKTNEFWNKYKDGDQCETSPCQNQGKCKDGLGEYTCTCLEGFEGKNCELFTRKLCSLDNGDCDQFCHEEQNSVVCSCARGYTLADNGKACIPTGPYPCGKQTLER

Chain of Chymotrypsin, from human pancreas (P17538 19-263): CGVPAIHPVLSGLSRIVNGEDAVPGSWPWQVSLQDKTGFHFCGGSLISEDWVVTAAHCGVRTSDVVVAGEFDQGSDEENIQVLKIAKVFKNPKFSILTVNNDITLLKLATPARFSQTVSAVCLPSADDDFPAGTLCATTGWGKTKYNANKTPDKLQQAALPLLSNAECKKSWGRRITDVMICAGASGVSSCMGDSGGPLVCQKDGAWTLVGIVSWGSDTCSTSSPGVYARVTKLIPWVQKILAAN

Compound	Urokinase at 100 μM % [1] [%]	Hemolysis at 100 μM % [2] [%]	IC50 ([3]; Elastase IC50) [µM]	Chymase at 100 μM % (Chymase, from human skin) [%]	Trypsin at 100 μM % [4] [%]	IC50 [5] [µM]	Cytotoxicity LC50/GI50 Hela cells (HELA cells (Acc57); Hela cells) [µM]	Thrombin at 100 μM % [6] [%]	Tryptase at 100 μM % [7] [%]	Chymotrypsin at 100 μM % [8] [%]	FXa at 100 μM % [9] [%]	Elastase at 100 μM % ([3]; at 100 μM (stated in cell instead of IC50)) [at %]	Cytotoxicity LC50/GI50 Hela cells (HELA cells (Acc57)) [µM]	IC50 ([3]; read-out: Elastase IC50) [µM]
CC[C@H](C)[C@@H]1NC(=O)[C@@H]2CCCN2C(=O)[C@@H]2CCCN2C(=O)[C@H](CC(=O)O)NC(=O)[C@H](CO)NC(=O)[C@H](CCCCN)NC(=O)[C@H]([C@@H](C)O)NC(=O)[C@@H]2CSSC[C@H](NC1=O)C(=O)N[C@@H](CC(N)=O)C(=O)N1CCC[C@@H]1C(=O)N1CCC[C@H]1C(=O)N[C@@H](Cc1ccccc1)C(=O)N2 [Ex. 3] (HELM PEPTIDE1{F.C.T.K.S.D.P.P.I.C.N.[dP].P}$PEPTIDE1,PEPTIDE1,2:R3-10:R3|PEPTIDE1,PEPTIDE1,1:R1-13:R2$$$V2.0)	4	0	> 100	1	92	0.051	100	0	68	0	4	–	–	–
CC[C@H](C)[C@@H]1NC(=O)[C@@H]2CCCN2C(=O)[C@@H]2CCCN2C(=O)[C@H](CC(=O)O)NC(=O)[C@H](CO)NC(=O)[C@H](CCCCN)NC(=O)[C@H]([C@@H](C)O)NC(=O)[C@@H]2CSSC[C@H](NC1=O)C(=O)N[C@@H](CO)C(=O)N1CCC[C@@H]1C(=O)N1CCC[C@H]1C(=O)N[C@@H](Cc1ccccc1)C(=O)N2 [Ex. 4] (HELM PEPTIDE1{F.C.T.K.S.D.P.P.I.C.S.[dP].P}$PEPTIDE1,PEPTIDE1,2:R3-10:R3|PEPTIDE1,PEPTIDE1,1:R1-13:R2$$$V2.0)	5.4	0	> 100	0	96	0.091	100	0	0	1.8	2.4	–	–	–
CC[C@H](C)[C@@H]1NC(=O)[C@@H]2CCCN2C(=O)[C@@H]2CCCN2C(=O)[C@H](CC(=O)O)NC(=O)[C@H](CO)NC(=O)[C@H](CCCCN)NC(=O)[C@H]([C@@H](C)O)NC(=O)[C@H](CCC(=O)O)NC(=O)[C@H](CCCNC(=N)N)NC(=O)[C@@H]2CCCN2C(=O)[C@H]2CCCN2C(=O)[C@H](Cc2ccccc2)NC(=O)[C@H](CCCNC(=N)N)NC1=O [Ex. 7] (HELM PEPTIDE1{R.E.T.K.S.D.P.P.I.R.F.[dP].P}$PEPTIDE1,PEPTIDE1,1:R1-13:R2$$$V2.0)	1.1	0.2	–	13.4	41	0.091	–	0	1.5	12	11.7	1.5	100	–
CC[C@H](C)[C@@H]1NC(=O)[C@H](C)NC(=O)[C@@H]2CCCN2C(=O)[C@H](CC(=O)O)NC(=O)[C@H](CO)NC(=O)[C@H](CCCCN)NC(=O)[C@H]([C@@H](C)O)NC(=O)[C@@H]2CSSC[C@H](NC1=O)C(=O)N[C@@H](CCCNC(=N)N)C(=O)N1CCC[C@@H]1C(=O)N1CCC[C@H]1C(=O)N[C@@H]([C@@H](C)CC)C(=O)N2 [Ex. 14] (HELM PEPTIDE1{I.C.T.K.S.D.P.A.I.C.R.[dP].P}$PEPTIDE1,PEPTIDE1,2:R3-10:R3|PEPTIDE1,PEPTIDE1,1:R1-13:R2$$$V2.0)	5.4	0	> 100	42.3	88	0.052	100	8.7	84.2	0	6	–	–	–
CCCC[C@@H]1NC(=O)[C@@H]2CCCN2C(=O)[C@@H]2CCCN2C(=O)[C@H](CC(=O)O)NC(=O)[C@H](CO)NC(=O)[C@H](CCCCN)NC(=O)[C@H]([C@@H](C)O)NC(=O)[C@@H]2CSSC[C@H](NC1=O)C(=O)N[C@@H](CCCNC(=N)N)C(=O)N1CCC[C@@H]1C(=O)N1CCC[C@H]1C(=O)N[C@@H]([C@@H](C)CC)C(=O)N2 [Ex. 19] (HELM PEPTIDE1{I.C.T.K.S.D.P.P.[Nle].C.R.[dP].P}$PEPTIDE1,PEPTIDE1,2:R3-10:R3|PEPTIDE1,PEPTIDE1,1:R1-13:R2$$$V2.0)	4	0	> 100	26.9	94.0	0.041	100	11	85.2	0	32	–	–	–
CC[C@H](C)[C@@H]1NC(=O)[C@@H]2CCCN2C(=O)[C@@H]2CCCN2C(=O)[C@H](CC(=O)O)NC(=O)[C@H](CO)NC(=O)[C@H](CCCCN)NC(=O)[C@H]([C@@H](C)O)NC(=O)[C@@H]2CSSC[C@H](NC1=O)C(=O)N[C@@H]([C@@H](C)O)C(=O)N1CCC[C@@H]1C(=O)N1CCC[C@H]1C(=O)N[C@@H](C1CCCCC1)C(=O)N2 [Ex. 38] (HELM PEPTIDE1{[O=C([C@@H](N[*:1])C1CCCCC1)[*:2]].C.T.K.S.D.P.P.I.C.T.[dP].P}$PEPTIDE1,PEPTIDE1,2:R3-10:R3|PEPTIDE1,PEPTIDE1,1:R1-13:R2$$$V2.0)	1	0	> 100	1	96	0.031	100	0	11	4	0	–	–	–
CC[C@H](C)[C@@H]1NC(=O)[C@@H]2CCCN2C(=O)[C@@H]2CCCN2C(=O)[C@H](CC(=O)O)NC(=O)[C@H](CO)NC(=O)[C@H](CCCCN)NC(=O)[C@H]([C@@H](C)O)NC(=O)[C@@H]2CSSC[C@H](NC1=O)C(=O)N[C@@H](CC(=O)O)C(=O)N1CCC[C@@H]1C(=O)N1CCC[C@H]1C(=O)N[C@@H](C1CCCCC1)C(=O)N2 [Ex. 39] (HELM PEPTIDE1{[O=C([C@@H](N[*:1])C1CCCCC1)[*:2]].C.T.K.S.D.P.P.I.C.D.[dP].P}$PEPTIDE1,PEPTIDE1,2:R3-10:R3|PEPTIDE1,PEPTIDE1,1:R1-13:R2$$$V2.0)	2	0	> 100	0	94	0.038	98	2	34	7	0	–	–	–
CC[C@H](C)[C@@H]1NC(=O)[C@@H]2CCCN2C(=O)[C@H]2CCCN2C(=O)[C@H](CCCNC(=N)N)NC(=O)[C@@H]2CSSC[C@H](NC1=O)C(=O)N[C@@H]([C@@H](C)O)C(=O)N[C@@H](CCCCN)C(=O)N[C@@H](CO)C(=O)N[C@@H](CC(=O)O)C(=O)N1CCC[C@H]1C(=O)N1CCC[C@H]1C(=O)N[C@@H](CC1CCCCC1)C(=O)N2 [Ex. 58] (HELM PEPTIDE1{I.C.T.K.S.D.P.P.[Cha].C.R.[dP].P}$PEPTIDE1,PEPTIDE1,2:R3-10:R3|PEPTIDE1,PEPTIDE1,1:R1-13:R2$$$V2.0)	6.7	0	–	44.1	97	0.0475	100	28	–	0	25	–	–	> 100

Source: US8658604B2, “Template-fixed beta-hairpin peptidomimetics with protease inhibitory activity” (Polyphor Ltd, priority 2005, dated 2014)
